Data taken from patent US5750540A, “1,4-di-substituted piperidine derivatives” (Banyu Pharmaceutical Co., Ltd., priority 1995, dated 1998).
Where two headings read alike, the source gives them in different places.

Legend:
[1] = target: T1, muscarinic M3 receptor (Rattus norvegicus, UniProt P08483); assay: Intestinal propulsion in rats (charcoal meal); assay type: in vivo; parameters: from tissue; conditions: i.v., 15% inhibition of intestinal propulsion
Description: (§1) Tests for antagonism against muscarinic M3 receptor (in vivo)
5) Tests for intestinal propulsion in rats
Five- to seven-weeks-old male rats of the Sprague-Dawley strain were fasted overnight. A test compound was administered intravenously to the animals. Five minutes later, 1 ml per animal of a 5% charcoal suspension was administered orally. Thirty minutes after administration of the charcoal meal, the rats were sacrificed by decapitation, and the gastrointestinal tract was removed. The distance from the pylorus to the point of arrival of the charcoal meal was measured and the transportation rate was calculated. The ID15 value was calculated from the dose-response curve using probit analysis and defined as the drug dose that inhibited intestinal propulsion in the control group by 15%.

[2] = target: T1, muscarinic M3 receptor; assay: in vivo; parameters: from tissue; host or cells: living rat, airways; conditions: iv, read-out: Salivary secretion ID50
Description: as §1
2) Tests for salivary secretion in rats
Five- to seven-weeks-old male rats of the Sprague-Dawley strain were anesthetized with sodium pentobarbital (65 mg/kg, i.p.), and a cannula was inserted into the right jugular vein for purposes of drug administration. A test compound was administered intravenously. Five minutes later, carbachol (10 μg/kg, i.v.) was administered to evoke salivary secretion. For each rat, saliva collection was started immediately after carbachol administration and continued for ten minutes. This was carried out by inserting glass capillaries (Drummond, 100 μl) into the oral cavity of the rat at intervals of one minute. The amount of collected saliva was determined on the assumption that a length of 75 mm of the glass capillary corresponded to 100 μl. Physiological saline was used in the control group. The ID50 value was calculated from the dose-response curve of the test compound using probit analysis and defined as the drug dose that inhibited the carbachol-induced salivation in the control group by 50%.

[3] = system: muscarinic M3 receptor; assay: in vivo; conditions: rat, i.v., Table 3
Description: as §1
(§2) 1) Tests for bronchodilation in rats
(§3) Eight- to eleven-weeks-old male rats of the Sprague-Dawley strain, weighing 300-400 g, were anesthetized with urethane (750 mg/kg, i.p.) and a-chloralose (37.5 mg/kg, i.p.). A bronchus was intubated, and the right jugular vein was cannulated for drug administration. […] To evoke an increase in airway resistance, acetylcholine (50 μg/kg, i.v.) was administered to the animals. Mean values for the acetylcholine-induced increase in airway resistance as measured five minutes before (control) and five minutes after test compound administration were calculated and the results were expressed as percentages of the control response. The ID50 value was calculated from the dose-response curve of the test compound using probit analysis and defined as the drug dose that inhibited the acetylcholine-induced increase in airway resistance in the control group by 50 %.

[4] = target: T2, muscarinic M2 receptors (Rattus norvegicus, UniProt P10980); assay: Bradycardia in rats (acetylcholine-induced); assay type: in vivo; conditions: iv, 5 min, i.v., 5 minutes after administration, 50% inhibition of acetylcholine-induced bradycardia, read-out: Bradycardia ID50
T2 construct: a membrane specimen from the heart was used as the membrane specimen; from tissue; host or cells: rat heart membranes (SD rat)
T2 sequence (P10980 1-466): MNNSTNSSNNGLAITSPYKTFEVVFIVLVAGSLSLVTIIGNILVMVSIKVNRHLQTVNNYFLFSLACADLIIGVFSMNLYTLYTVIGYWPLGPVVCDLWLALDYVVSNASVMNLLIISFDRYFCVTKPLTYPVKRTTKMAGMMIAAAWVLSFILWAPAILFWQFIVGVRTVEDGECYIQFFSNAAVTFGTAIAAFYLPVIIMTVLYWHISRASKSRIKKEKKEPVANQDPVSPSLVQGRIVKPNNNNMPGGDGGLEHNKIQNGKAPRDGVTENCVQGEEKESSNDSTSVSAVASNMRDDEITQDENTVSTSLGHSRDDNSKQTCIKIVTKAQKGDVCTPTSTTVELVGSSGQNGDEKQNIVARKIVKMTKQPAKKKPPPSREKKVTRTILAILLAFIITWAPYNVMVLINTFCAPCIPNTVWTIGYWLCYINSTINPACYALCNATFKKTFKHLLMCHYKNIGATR
Description: 6) Tests for bradycardia in rats
Eight- to eleven-weeks-old male rats of the Sprague-Dawley strain, weighing 300-400 g, were anesthetized with urethane (750 mg/kg, i.p.) and α-chloralose (37.5 mg/kg, i.p.). A bronchus was intubated, and the right jugular vein was cannulated for drug administration. […] To evoke bradycardia, acetylcholine (50 μg/kg, i.v.) was administered to the animals. Mean values for the acetylcholine-induced decrease in heart rate as measured five minutes before (control) and five minutes after test compound administration were calculated and the results were expressed as percentages relative to the control response. The ID50 value was calculated from the dose-response curve of the test compound using probit analysis and defined as the drug dose that inhibited the acetylcholine-induced bradycardia in the control group by 50%.

[5] = target: T1, muscarinic M3 receptor; assay: Intravesical bladder pressure in rats; assay type: in vivo; parameters: from tissue; conditions: i.v., 25% inhibition of peak intravesical bladder pressure
Description: as §1
4) Tests for intravesical bladder pressure in rats
These tests were performed according to the method of Maggi et al. (Drug Dev. Res. 10: 157-170, 1987). Briefly, eight- to ten-weeks-old male rats of the Sprague-Dawley strain, weighing 330-370 g, were anesthetized by subcutaneous administration of urethane (1 g/kg) and α-chloralose (50 mg/kg), and the right jugular vein was cannulated for drug administration. The body temperature was kept constant by means of a heating pad maintained at 37° C. Through a midline incision of the abdomen, the urinary bladder was exposed and emptied of urine by the application of a slight manual pressure. A 20-gauge needle was inserted through the apex of the bladder dome by 3-4 mm into its lumen. The needle had previously been connected to a pressure transducer and an infusion pump by means of polyethylene tubing and the whole system filled with saline. After a 30-minutes equilibration period at zero volume, saline was infused (2.8 ml/hr) until a coordinated sustained contraction, reflecting the peak intravesical bladder pressure, occured. The bladder was then emptied manually and allowed to rest for five minutes. PvesP was defined as the difference between the maximum and resting bladder pressures. This procedure was repeated at least five times and the evaluation of a test compound was carried out in the animals in which a stable peak intravesical bladder pressure was recorded. The drug potency (ID25 ) was determined after intravenous administration of the test compound during the rest period. Five minutes after drug administration, the infusion of saline was started to induce micturition contraction and the peak intravesical bladder pressure was recorded. The depression in peak intravesical bladder pressure was expressed as a percent of the control peak intravesical bladder pressure observed before administration of the test compound. The ID25 value, calculated by probit analysis, was defined as the drug dose that inhibited the control peak intravesical bladder pressure by 25%.

[6] = target: T1, muscarinic M3 receptor; assay: in vivo; parameters: from tissue; host or cells: living rat, airways; conditions: iv, 5 min, read-out: Airway contraction ID50
Description: as §1, §2, §3

[7] = target: T1, muscarinic M3 receptor; assay: in vivo; parameters: from tissue; host or cells: living rat, airways; conditions: iv, read-out: Mydriasis ED50
Description: as §1
3) Tests for mydriasis in rats
Five- to seven-weeks-old male rats of the Sprague-Dawley strain were anesthetized with pentobarbital (65 mg/kg, i.p.), and a cannula was inserted into the right jugular vein for purposes of drug administration. By using a graduated scale (pulilometer), pupillary responses to drugs were measured to the nearest 0.1 mm at the point of the greatest diameter. […] Responses were expressed as percentages of the maximal increase in pupil diameter induced by administration of atropine (30 μg/kg, i.v.). The ED50 value was calculated from the dose-response curve of the test compound using probit analysis and defined as the drug dose that induced 50% of the maximal response.

T1 sequence (P08483 whole entry): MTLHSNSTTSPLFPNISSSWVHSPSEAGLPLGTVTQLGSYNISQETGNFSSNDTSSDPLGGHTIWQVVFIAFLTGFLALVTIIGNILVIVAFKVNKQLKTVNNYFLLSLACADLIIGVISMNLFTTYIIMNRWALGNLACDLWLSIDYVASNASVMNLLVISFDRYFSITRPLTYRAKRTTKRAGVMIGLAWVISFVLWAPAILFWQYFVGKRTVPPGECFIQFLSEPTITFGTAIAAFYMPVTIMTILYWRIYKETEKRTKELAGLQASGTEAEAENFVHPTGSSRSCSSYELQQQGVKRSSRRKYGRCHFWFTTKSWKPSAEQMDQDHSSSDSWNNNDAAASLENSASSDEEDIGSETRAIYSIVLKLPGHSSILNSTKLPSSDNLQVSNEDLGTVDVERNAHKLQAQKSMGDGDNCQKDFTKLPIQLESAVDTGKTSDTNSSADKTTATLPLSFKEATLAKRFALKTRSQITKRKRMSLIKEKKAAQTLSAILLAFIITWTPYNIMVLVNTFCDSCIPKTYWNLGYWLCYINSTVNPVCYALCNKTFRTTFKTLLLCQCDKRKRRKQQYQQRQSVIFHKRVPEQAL

Compound | Enterokinesis ID15 [1] | ED50 [2] | Activity with respect to all of the six types of responses (in words) [3] | Selectivity over the six types of responses (in words) [3] | ED50 [4] | Urinating contraction ID25 [5] | ED50 [6] | ED50 [7]
CN1[C@@H]2CC[C@H]1C[C@@H](OC(=O)C(CO)c1ccccc1)C2 (stereo partly shown) [Atropine] | 0.019 mg/kg i.v. | 2.2 µg/kg | potent activities | non-selective | 3.7 µg/kg | 0.027 mg/kg i.v. | 4.3 µg/kg | 18 µg/kg
CC(C)[N+]1(C)[C@@H]2CC[C@H]1C[C@@H](OC(=O)C(CO)c1ccccc1)C2 (stereo partly shown) [Ipratropium] | 0.004 mg/kg i.v. | 1.8 µg/kg | potent activities | non-selective | 1.8 µg/kg | 0.0048 mg/kg i.v. | 1.5 µg/kg | 4.1 µg/kg
